Results taken from patent US7498353B2, “Heterocyclic anti-viral compounds comprising metabolizable moieties and their uses” (priority 2005, dated 2009).

What follows are compounds tested on HCV NS5A protein in 9-13 replicon cells (assay: Quantitative Western blot replicon assay (HEPC_REPLICON-ICWESTERN)). Settings: Hepatitis C virus, read-out: HEPC_REPLICON-ICWESTERN Result Value (IC50).
Assay type: cell-based, Hepatitis C virus (HCV)
Method: Alternatively, the inhibitory activity of the metabolically active agents of the prodrugs can be confirmed using a quantitative Western immunoblot assay utilizing antibodies specific for HCV non-structural proteins, such as NS3, NS4A NS5A and NS5B. In one embodiment of this assay, replicon cells are treated with varying concentrations of test prodrug to determine the concentration of the metabolically active agent of the test prodrug that yields a 50% reduction in the amount of a non-structural protein produced as compared to a control sample (IC50). A single non-structural protein may be quantified or multiple non-structural proteins may be quantified. Antibodies suitable for carrying out such immunoblot assays are available commercially (e.g., from BIODESIGN International, Saco, Me.).
Certain prodrugs of the invention, which may inhibit HCV translation or replication prior to metablism and/or are metabolized into active agents, were also tested for their ability to inhibit HCV replication using a quantitative Western blot analysis with antibodies specific for the HCV NS5A or other non-structural proteins. Actively dividing 9-13 replicon cells were seeded into 6-well plates at a density of 1×10^5 cells/well in a volume of 2 ml/well and incubated at 37° C. and 5% CO2 for 24 hours. Various concentrations of test prodrugs (in a volume of 10 ul) were added to the wells and the cells incubated for another 48 hours. Protein samples were prepared from the cultured cells, resolved on a SDS-PAGE gel and transferred to a nitrocellulose membrane. The membrane was blocked with 5% non-fat milk in PBS for 1 hour at room temperature. Primary antibody (anti NS5A antibody; BIODESIGN International, Saco, Me.) incubation was performed for 1 hour at room temperature, after which the membrane was washed 3 times (for 15 min per time) with PBST (PBS plus 0.1% Tween 20). Horseradish peroxidase conjugated secondary antibody incubation was performed for 1 hour at room temperature and the membrane was washed 3 times (for 15 min per time) with PBST. The membrane was then soaked in substrate solution (Pierce) and exposed to a film or quantified using an imager. In this assay, the amount of test prodrug that is believed to be transformed into an active agent under the given conditions that yielded a 50% reduction in the amount of NS5A protein translated as compared to a control sample (IC50) was determined.
`CCOP(=O)(CCC(=O)CCN(C(=O)C(Cl)Cl)c1ccnc(-c2cc(-c3c(Cl)cccc3Cl)no2)c1)OCC` [Cpd. No. 11, Diethyl 5-(2,2-Dichloro-N-(2-(3-(2,6-dichlorophenyl)isoxazol-5-yl)pyridin-4-yl)acetamido)-3-oxopentylphosphonate] showed an IC50 of less than 1 µM.

Same assay, conditions: Hepatitis C virus; 9-13 replicon cells, 50% reduction in NS5A protein; read-out: HEPC_REPLICON-ICWESTERN Result Value (IC50)
Compound `CC(C)[C@@H](CN(C(=O)C(Cl)Cl)c1cccc(-c2cc(-c3c(Cl)cccc3Cl)no2)c1)NC(=O)C1CC(O)CN1C(=O)OC(C)(C)C` (stereo partly drawn) [Cpd. No. 24, tert-Butyl 2-((S)-1-(2,2-Dichloro-N-(3-(3-(2,6-dichlorophenyl)isoxazol-5-yl)phenyl)acetamido)-3-methylbutan-2-ylcarbamoyl)-4-hydroxypyrrolidine-1-carboxylate] has an IC50 of 1 to 20 µM.
Compound `CC(C)[C@@H](CN(C(=O)C(Cl)Cl)c1cccc(-c2cc(-c3c(Cl)cccc3Cl)no2)c1)NC(=O)[C@H](CCC(=O)OC(C)(C)C)NC(=O)OC(C)(C)C` [Cpd. No. 26, (S)-tert-Butyl 4-(tert-Butoxycarbonylamino)-5-((S)-1-(2,2-dichloro-N-(3-(3-(2,6-dichlorophenyl)isoxazol-5-yl)phenyl)acetamido)-3-methylbutan-2-ylamino)-5-oxopentanoate] has an IC50 of 1 to 20 µM.
With `CC(C)(C)OC(=O)N1CC(O)C[C@H]1C(=O)NCCN(C(=O)C(Cl)Cl)c1cccc(-c2cc(-c3c(Cl)cccc3Cl)no2)c1` (stereo partly drawn) [Cpd. No. 33, (2S)-tert-Butyl 2-(2-(2,2-Dichloro-N-(3-(3-(2,6-dichlorophenyl)isoxazol-5-yl)phenyl)acetamido)ethylcarbamoyl)-4-hydroxypyrrolidine-1-carboxylate] the IC50 was greater than 20 µM.
In the case of `CCC(C)OCN(C(=O)C(Cl)Cl)c1ccnc(-c2cc(-c3c(Cl)cccc3Cl)no2)c1` (stereo not drawn) [Cpd. No. 10, N-(sec-Butoxymethyl)-2,2-dichloro-N-(2-(3-(2,6-dichlorophenyl)isoxazol-5-yl)pyridin-4-yl)acetamide], the IC50 is reported as 1 to 20 µM.
With `CC(C)[C@@H](CN(C(=O)C(Cl)Cl)c1cccc(-c2cc(-c3c(Cl)cccc3Cl)no2)c1)NC(=O)[C@H](N)c1ccccc1` [Cpd. No. 41, N-((S)-2-((R)-2-Amino-2-phenylacetamido)-3-methylbutyl)-2,2-dichloro-N-(3-(3-(2,6-dichlorophenyl)isoxazol-5-yl)phenyl)acetamide] the IC50 was greater than 20 µM.
With `CNCC(=O)N[C@H](CN(C(=O)C(Cl)Cl)c1cccc(-c2cc(-c3c(Cl)cccc3Cl)no2)c1)C(C)C` [Cpd. No. 43, (S)-2,2-Dichloro-N-(3-(3-(2,6-dichlorophenyl)isoxazol-5-yl)phenyl)-N-(3-methyl-2-(2-(methylamino)acetamido)butyl)acetamide] the IC50 was 1 to 20 µM.
Compound `CC(C)[C@H](N)C(=O)NCCN(C(=O)C(Cl)Cl)c1cccc(-c2cc(-c3c(Cl)cccc3Cl)no2)c1` [Cpd. No. 37, (S)-2-Amino-N-(2-(2,2-dichloro-N-(3-(3-(2,6-dichlorophenyl)isoxazol-5-yl)phenyl)acetamido)ethyl)-3-methylbutanamide] has an IC50 of 1 to 20 µM.
With `CC(C)[C@H](N)CN(C(=O)C(Cl)Cl)c1cccc(-c2cc(-c3c(Cl)cccc3Cl)no2)c1` [Cpd. No. 39, (S)-N-(2-Amino-3-methylbutyl)-2,2-dichloro-N-(3-(3-(2,6-dichlorophenyl)isoxazol-5-yl)phenyl)acetamide] the IC50 was 1 to 20 µM.
`CC(C)[C@@H](CN(C(=O)C(Cl)Cl)c1cccc(-c2cc(-c3c(Cl)cccc3Cl)no2)c1)NC(=O)CN(C)C(=O)OC(C)(C)C` [Cpd. No. 25, (S)-tert-Butyl 2-(1-(2,2-Dichloro-N-(3-(3-(2,6-dichlorophenyl)isoxazol-5-yl)phenyl)acetamido)-3-methylbutan-2-ylamino)-2-oxoethyl(methyl)carbamate] showed an IC50 of 1 to 20 µM.
Compound `CC(C)(C)OC(=O)N[C@H](C(=O)NCCN(C(=O)C(Cl)Cl)c1cccc(-c2cc(-c3c(Cl)cccc3Cl)no2)c1)c1ccccc1` [Cpd. No. 17, (S)-tert-Butyl 2-(2-(2,2-Dichloro-N-(3-(3-(2,6-dichlorophenyl)isoxazol-5-yl)phenyl)acetamido)ethylamino)-2-oxo-1-phenylethylcarbamate] has an IC50 greater than 20 µM.
`CC(C)[C@@H](CN(C(=O)C(Cl)Cl)c1cccc(-c2cc(-c3c(Cl)cccc3Cl)no2)c1)NC(=O)[C@H](NC(=O)OC(C)(C)C)c1ccccc1` [Cpd. No. 23, tert-Butyl (R)-2-((S)-1-(2,2-Dichloro-N-(3-(3-(2,6-dichlorophenyl)isoxazol-5-yl)phenyl)acetamido)-3-methylbutan-2-ylamino)-2-oxo-1-phenylethylcarbamate] gave an IC50 of 1 to 20 µM.
Compound `O=C(NCCN(C(=O)C(Cl)Cl)c1cccc(-c2cc(-c3c(Cl)cccc3Cl)no2)c1)[C@@H]1CC(O)CN1` (stereo partly drawn) [Cpd. No. 34, (2S)-N-(2-(2,2-Dichloro-N-(3-(3-(2,6-dichlorophenyl)isoxazol-5-yl)phenyl)acetamido)ethyl)-4-hydroxypyrrolidine-2-carboxamide] has an IC50 greater than 20 µM.
Work on `NC(CCC(=O)O)C(=O)CCN(C(=O)C(Cl)Cl)c1ccnc(-c2cc(-c3c(Cl)cccc3Cl)no2)c1` (stereo not drawn) [Cpd. No. 4, 4-Amino-7-(2,2-dichloro-N-(2-(3-(2,6-dichlorophenyl)isoxazol-5-yl)pyridin-4-yl)acetamido)-5-oxoheptanoic Acid] yielded an IC50 of less than 1 µM.
`N[C@@H](CCC(=O)O)C(=O)NCCN(C(=O)C(Cl)Cl)c1cccc(-c2cc(-c3c(Cl)cccc3Cl)no2)c1` [Cpd. No. 35, (S)-4-Amino-5-(2-(2,2-dichloro-N-(3-(3-(2,6-dichlorophenyl)isoxazol-5-yl)phenyl)acetamido)ethylamino)-5-oxopentanoic Acid] showed an IC50 greater than 20 µM.
With `CC(C)(C)OC(=O)NCCN(C(=O)C(Cl)Cl)c1cccc(-c2cc(-c3c(Cl)cccc3Cl)no2)c1` [Cpd. No. 14, tert-Butyl 2-(2,2-Dichloro-N-(3-(3-(2,6-dichlorophenyl)isoxazol-5-yl)phenyl)acetamido)ethylcarbamate] the IC50 was greater than 20 µM.
`CC(C)[C@@H](CN(C(=O)C(Cl)Cl)c1cccc(-c2cc(-c3c(Cl)cccc3Cl)no2)c1)NC(=O)[C@@H](N)c1ccccc1` [Cpd. No. 40, N-((S)-2-((S)-2-Amino-2-phenylacetamido)-3-methylbutyl)-2,2-dichloro-N-(3-(3-(2,6-dichlorophenyl)isoxazol-5-yl)phenyl)acetamide] gave an IC50 greater than 20 µM.
With `N[C@@H](C(=O)NCCN(C(=O)C(Cl)Cl)c1cccc(-c2cc(-c3c(Cl)cccc3Cl)no2)c1)c1ccccc1` [Cpd. No. 20, (R)-N-(2-(2-Amino-2-phenylacetamido)ethyl)-2,2-dichloro-N-(3-(3-(2,6-dichlorophenyl)isoxazol-5-yl)phenyl)acetamide] the IC50 was 1 to 20 µM.
For `CC[C@H](C)[C@H](N)C(=O)NCCN(C(=O)C(Cl)Cl)c1cccc(-c2cc(-c3c(Cl)cccc3Cl)no2)c1` [Cpd. No. 38, (2S,3S)-2-Amino-N-(2-(2,2-dichloro-N-(3-(3-(2,6-dichlorophenyl)isoxazol-5-yl)phenyl)acetamido)ethyl)-3-methylpentanamide], the IC50 was 1 to 20 µM.
`COC(=O)CCN(C(=O)C(Cl)Cl)c1cccc(-c2cc(-c3c(Cl)cccc3Cl)no2)c1` [Cpd. No. 12, Methyl 3-(2,2-Dichloro-N-(3-(3-(2,6-dichlorophenyl)isoxazol-5-yl)phenyl)acetamido)propanoate] gave an IC50 greater than 20 µM.
In the case of `CC(C)[C@@H](CN(C(=O)C(Cl)Cl)c1cccc(-c2cc(-c3c(Cl)cccc3Cl)no2)c1)NC(=O)[C@@H](NC(=O)OC(C)(C)C)c1ccccc1` [Cpd. No. 22, tert-Butyl (S)-2-((S)-1-(2,2-Dichloro-N-(3-(3-(2,6-dichlorophenyl)isoxazol-5-yl)phenyl)acetamido)-3-methylbutan-2-ylamino)-2-oxo-1-phenylethylcarbamate], the IC50 is reported as 1 to 20 µM.
With `CNCC(=O)NCCN(C(=O)C(Cl)Cl)c1cccc(-c2cc(-c3c(Cl)cccc3Cl)no2)c1` [Cpd. No. 36, 2,2-Dichloro-N-(3-(3-(2,6-dichlorophenyl)isoxazol-5-yl)phenyl)-N-(2-(2-(methylamino)acetamido)ethyl)acetamide] the IC50 was 1 to 20 µM.
Work on `N#CCCN(C(=O)C(Cl)Cl)c1cccc(-c2cc(-c3c(Cl)cccc3Cl)no2)c1` [Cpd. No. 13, 2,2-Dichloro-N-(2-cyanoethyl)-N-(3-(3-(2,6-dichlorophenyl)isoxazol-5-yl)phenyl)acetamide] yielded an IC50 greater than 20 µM.
In the case of `CC(C)(C)OC(=O)CC[C@H](NC(=O)OC(C)(C)C)C(=O)NCCN(C(=O)C(Cl)Cl)c1cccc(-c2cc(-c3c(Cl)cccc3Cl)no2)c1` [Cpd. No. 32, (S)-tert-Butyl 4-(tert-Butoxycarbonylamino)-5-(2-(2,2-dichloro-N-(3-(3-(2,6-dichlorophenyl)isoxazol-5-yl)phenyl)acetamido)ethylamino)-5-oxopentanoate], the IC50 is reported as greater than 20 µM.
